Experimental data from patent publication US20230348416A1, “GPR52 MODULATOR COMPOUNDS” (Heptares Therapeutics Limited, priority 2020, published 2023).

Experiments:
human GPR52 = biological target: T1, human GPR52 (Homo sapiens, UniProt Q9Y2T5); assay: GPR52 Agonist Functional cAMP Assay; type: cell-based
T1 construct: expressed in transfected cells; host or cells: HEKf suspension cells infected with BacMam virus
Protocol: GPR52 Agonist Functional cAMP Assay
HEKf suspension cells were infected for 24 h with 0.1% v/v human GPR52 expressing BacMam virus, a modified baculovirus designed for mammalian gene expression. Following BacMam infection, cells were pelleted by centrifugation (335 g, 5 min), resuspended in cell freezing medium (Sigma) and frozen at −150° C. until required. On experiment day, 25 nL GPR52 compound dilutions, prepared in DMSO, were stamped onto proxiplates (PerkinElmer) by a LabCyte ECHO acoustic dispenser. Frozen cells were thawed and resuspended in assay stimulation buffer (Cisbio) containing 0.5 mM 3-iso-butyl-1-methylxanthine (IBMX, Sigma) to achieve a density of 2000 cells per well. 10 μl cells were added to assay plates using a Multidrop Combi Reagent Dispenser (ThermoFisher) before centrifugation (335 g, 1 min). Cells were incubated with compounds at 37° C. for 30 min prior to addition of cAMP detection reagents (HiRange cAMP kit, Cisbio) which were prepared according to the manufacturer's instructions. Plates were shaken for 1 h at room temperature before reading on a PHERAstar FS plate reader (BMG Labtech) using standard HTRF settings. HTRF ratios were obtained by dividing the acceptor emissions (665 nm) by the donor emissions (620 nm) and multiplying by 10,000.

[1] = Rat IV and PO pharmacokinetic profiling; type: in vivo, male Sprague-Dawley rats; details: male, Sprague-Dawley, plasma, n = 3, mean ± standard deviation
Protocol: The pharmacokinetic profiles of Example 2 were assessed in male Sprague-Dawley rats via intravenous (IV) and oral (per os, PO) routes of delivery. Pharmacokinetic data (mean values±standard deviation) for Example 2 of the invention are detailed in Table 5.
Methods: For pharmacokinetic analysis, groups of three male Sprague-Dawley rats, ranging in weight between 200 and 230 g, were administered a single dose of Example 2 via IV or PO route, using the doses, dose volumes and vehicles specified in Table 5. Following dosing, blood samples were taken at several time points (pre-dose, 2 min, 5 min, 15 min, 30 min, 1 h, 3 h, 6 h, 12 h and 24 h for IV administration and pre-dose, 5 min, 15 min, 30 min, 1 hr, 2 h, 4 h, 8 h, 12 h and 24 h for PO administration) via serial tail vein bleeds, and centrifuged to separate plasma for analysis by LC-MS/MS. WinNonlin v8.2 statistics software (Pharsight Corporation, California, USA) was used to generate pharmacokinetic parameters using non-compartmental analysis.

[2] = Rat IV brain penetration (unbound brain-to-plasma ratio); type: in vivo, male Sprague-Dawley rats; details: male, Sprague-Dawley, brain and plasma, 1 mg/kg, 10 min post-dose, n = 3
Protocol: Plasma and brain exposure were evaluated to assess the brain penetration of Example 2, following IV administration. Unbound brain-to-plasma ratio (Kp,uu) was calculated, as detailed in Table 5, following experimental determination of binding in rat plasma and brain homogenate.
Methods: For brain penetration assessment, male Sprague-Dawley rats (n=3) were administered a single 1 mg/kg dose (formulated in 10% DMAC+10% Solutol HS15+80% saline) via the IV route. After 10 min post-dose, animals were sacrificed and brains extracted, homogenised with 2 volumes (w/v) of 50 mM sodium phosphate buffer (pH 7.4), and analysed by LC-MS/MS. Blood samples were removed at the same time point via tail vein bleed, centrifuged and the plasma analysed by LC-MS/MS.
To permit calculation of unbound brain-to-plasma ratio (Kp,uu), test compound binding in rat plasma and brain homogenate was performed, using Rapid Equilibrium Dialysis (RED). Test compound prepared in DMSO (1 μM final, 0.2% DMSO) was added to (i) undiluted male Sprague Dawley rat plasma and (ii) rat brain tissue homogenised with 2 volumes (w/v) of sodium phosphate buffer (pH 7.4), and dialysed against phosphate buffer for 5 h at 37° C. […] Fraction unbound (Fu) in plasma and brain was calculated using the following formula, then used to correct total plasma and brain concentrations to derive the Kp,uu: […]

T1 sequence (Q9Y2T5 whole entry): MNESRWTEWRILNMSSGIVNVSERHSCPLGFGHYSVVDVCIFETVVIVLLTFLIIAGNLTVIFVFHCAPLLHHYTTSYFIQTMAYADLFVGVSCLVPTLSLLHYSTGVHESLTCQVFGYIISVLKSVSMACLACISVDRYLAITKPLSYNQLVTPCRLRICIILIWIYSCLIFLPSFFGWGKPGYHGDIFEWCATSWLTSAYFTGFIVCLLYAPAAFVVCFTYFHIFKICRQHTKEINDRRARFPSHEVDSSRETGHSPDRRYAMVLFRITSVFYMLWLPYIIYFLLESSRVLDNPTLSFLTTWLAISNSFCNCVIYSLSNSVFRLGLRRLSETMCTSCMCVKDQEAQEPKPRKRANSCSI

CC(=O)NC1CCCc2c1nnn2-c1cc(Cc2cc(F)cc(C(F)(F)F)c2)ccn1 (centres unmarked) [Example 2, N-(1-(4-(3-fluoro-5-(trifluoromethyl)benzyl)pyridin-2-yl)-4,5,6,7-tetrahydro-1H-benzo[d][1,2,3]triazol-4-yl)acetamide]
EC50 (human GPR52; HEKf cells infected with human GPR52 BacMam virus, HTRF cAMP, 30 min at 37° C., read-out: PEC50 average (converted)): 50.1 nM | Emax (human GPR52; maximal response normalised to DMSO (0%) and compound 7m of J. Med. Chem., 2014, 57, 5226 (100%)): 86% | clearance ([1]; rat IV, 1 mg/kg): 5.5 ± 1 mL/min/kg | bioavailability ([1]; rat PO, 3 mg/kg): 88.2 ± 11.4% | Kp uu at 10 min [2]: 0.35 ± 0.02
